Laboratory results reported in US10196381B2, “Benzimidazole-2-piperazine heterocyclic compound, pharmaceutical composition containing the same, preparation method and use thereof” (Shanghai Huilun Life Science & Technology Co., Ltd., priority 2013, dated 2019).

Target: PARP-1 enzyme (Homo sapiens (Human), UniProt P09874)
Assay: PARP enzyme activity assay (HT Universal Chemiluminescent PARP Assay Kit, histone-coated wells)
Format: biochemical
Conditions: for inhibition at 0.03 µM: read-out: Inhibition (%) at 30 nM; for inhibition at 0.1 µM: read-out: Inhibition (%) at 100 nM
Procedure: PARP is an enzyme responsible for post-translational modification, which may be activated by means of DNA damage. The process catalyzed by PARP in vivo is mainly NAD-dependent poly(ADP-ribosyl)ation, in which the substrates are mainly some nuclear proteins including PARP, one example of which is histone. In the present invention, the PARP activity is assayed by determining the poly(ADP-ribosyl)ation degree of histone coated in a 96-well plate in the presence of NAD, and the PARP activity under the action of a PARP inhibitor is correspondingly assayed, thereby evaluating the degree of inhibition of the compounds on PARP activity. Poly(ADP-ribosyl)ation of nuclear proteins is a post-translational modification occurred in response to DNA damage. PARP is the abbreviation of poly(ADP-ribose)polymerase, which catalyzes the attachment of poly(ADP-ribose) to an adjacent nuclear protein in the presence of NAD, thus eliciting a mechanism of DNA repair through base excision repair pathway. The level of biotin-labeled ADP-ribose binding to histone can be detected by using the HT Universal Chemiluminescent PARP Assay Kit commercially available from Trevigen Corp. […] HT Universal Chemiluminescent PARP Assay Kit with Histone-coated Strip Wells, commercially available from Trevigen (US), Catalog #: 4676-096-K. […] 4. The PARP enzyme was carefully diluted with the 1×PARP buffer just before use, the diluted enzyme solution should be used as quickly as possible and the remaining solution should be discarded. […] 2. […] 1. […] 2. […] 4. […] After washing, equal volume of the PeroxyGlow A and B solutions were uniformly mixed, 100 μl of the solution was added to each well, and the chemiluminescent signals were recorded on a plate reader immediately. The readout of each well is converted into the percent inhibition. […] Note: the readout of the positive control well is designated as 100% enzyme activity; the readout of the negative control well is designated as 0% enzyme activity; and the activity X refers to the readout from respective concentration of each sample.

PARP-1 enzyme, sequence (P09874 whole entry): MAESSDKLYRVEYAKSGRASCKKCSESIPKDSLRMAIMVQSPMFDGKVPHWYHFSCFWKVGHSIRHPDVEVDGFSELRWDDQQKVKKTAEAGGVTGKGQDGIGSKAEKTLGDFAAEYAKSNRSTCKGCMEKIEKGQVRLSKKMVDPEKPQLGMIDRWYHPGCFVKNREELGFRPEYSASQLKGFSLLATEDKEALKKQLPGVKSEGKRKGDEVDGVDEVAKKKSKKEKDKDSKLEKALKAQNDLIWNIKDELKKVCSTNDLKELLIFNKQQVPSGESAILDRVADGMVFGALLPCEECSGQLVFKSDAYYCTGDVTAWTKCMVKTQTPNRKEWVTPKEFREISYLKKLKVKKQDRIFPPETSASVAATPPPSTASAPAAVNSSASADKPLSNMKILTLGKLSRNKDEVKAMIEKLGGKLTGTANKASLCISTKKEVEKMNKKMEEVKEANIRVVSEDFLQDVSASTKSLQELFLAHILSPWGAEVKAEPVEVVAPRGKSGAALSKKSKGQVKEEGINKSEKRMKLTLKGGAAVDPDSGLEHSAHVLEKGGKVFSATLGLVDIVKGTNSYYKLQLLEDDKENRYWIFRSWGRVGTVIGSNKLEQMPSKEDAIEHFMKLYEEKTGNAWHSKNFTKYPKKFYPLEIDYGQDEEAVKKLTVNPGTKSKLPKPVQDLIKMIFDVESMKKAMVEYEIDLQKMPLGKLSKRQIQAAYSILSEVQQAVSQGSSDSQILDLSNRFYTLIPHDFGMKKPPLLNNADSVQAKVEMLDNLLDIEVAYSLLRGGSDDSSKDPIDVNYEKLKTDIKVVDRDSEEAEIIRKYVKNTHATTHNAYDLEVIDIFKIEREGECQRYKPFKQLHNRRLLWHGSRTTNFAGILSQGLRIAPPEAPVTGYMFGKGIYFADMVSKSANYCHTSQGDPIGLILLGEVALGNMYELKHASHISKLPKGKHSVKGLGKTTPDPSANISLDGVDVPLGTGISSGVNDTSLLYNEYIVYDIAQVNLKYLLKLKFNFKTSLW

SMILES | inhibition at 0.03 µM | inhibition at 0.1 µM
NC(=O)c1cc(F)cc2[nH]c(N3CCN(c4ncc(F)cn4)CC3)nc12 [Compound (17), 6-fluoro-2-(4-(5-fluoropyrimidin-2-yl)piperazin-1-yl)-1H-benzimidazole-4-carboxamide] | 56% | 78%
NC(=O)c1cc(F)cc2[nH]c(N3CCN(c4cnc(C(=O)N5CCOCC5)cn4)CC3)nc12 [Compound (30), 6-fluoro-2-(4-(5-(morpholin-4-acyl)pyrazin-2-yl)piperazin-1-yl)-1H-benzimidazole-4-carboxamide] | 78% | 92%
N#Cc1cnc(N2CCN(c3nc4c(C(N)=O)cccc4[nH]3)CC2)nc1 [Compound (14), 2-(4-(5-cyanopyrimidin-2-yl)piperazin-1-yl)-1H-benzimidazole-4-carboxamide] | 57% | 78%
CNC(=O)c1ncc(N2CCN(c3nc4c(C(N)=O)cc(F)cc4[nH]3)CC2)cn1 [Compound (39)] | 78% | 92%
NC(=O)c1cc(F)cc2[nH]c(N3CCN(c4ccncn4)CC3)nc12 [Compound (16), 6-fluoro-2-(4-(pyrimidin-4-yl)piperazin-1-yl)-1H-benzimidazole-4-carboxamide] | 78% | 91%
NC(=O)c1ccc(N2CCN(c3nc4c(C(N)=O)cccc4[nH]3)CC2)nc1 [Compound (12), 2-(4-(5-carbamoylpyridin-2-yl)piperazin-1-yl)-1H-benzimidazole-4-carboxamide] | 57% | 77%
CCNc1cccnc1N1CCN(c2nc3c(C(N)=O)cccc3[nH]2)CC1 [Compound (8), 2-(4-(3-ethylaminopyridin-2-yl)piperazin-1-yl)-1H-benzimidazole-4-carboxamide] | 8% | 16%
CCNC(=O)c1ncc(N2CCN(c3nc4c(C(N)=O)cc(F)cc4[nH]3)CC2)cn1 [Compound (40), 2-(4-(2-ethylcarbamoylpyrimidin-5-yl)piperazin-1-yl)-6-fluoro-1H-benzimidazole-4-carboxamide] | 77% | 93%
NC(=O)c1cccc2[nH]c(N3CCN(c4ncc(F)cn4)CC3)nc12 [Compound (2), 2-(4-(5-fluoropyrimidin-2-yl)piperazin-1-yl)-1H-benzimidazole-4-carboxamide] | 42% | 69%
COc1cnc(N2CCN(c3nc4c(C(N)=O)cccc4[nH]3)CC2)nc1 [Compound (5), 2-(4-(5-methoxypyrimidin-2-yl)piperazin-1-yl)-1H-benzimidazole-4-carboxamide] | 32% | 60%
NC(=O)c1cccc2[nH]c(N3CCN(c4nccc(C(F)(F)F)n4)CC3)nc12 [Compound (9), 2-(4-(4-trifluoromethylpyrimidin-2-yl)piperazin-1-yl)-1H-benzimidazole-4-carboxamide] | 16% | 31%
CNC(=O)c1ccc(N2CCN(c3nc4c(C(N)=O)cc(F)cc4[nH]3)CC2)nn1 [Compound (23), 6-fluoro-2-(4-(6-methylcarbamoylpyridazin-3-yl)piperazin-1-yl)-1H-benzimidazole-4-carboxamide] | 78% | 89%
